According to ChEMBL document CHEMBL1201862, “PubChem BioAssay data set” (2004):
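These data come from cells grown in 96-well plates and exposed to compound for 48 hours at five concentrations. The concentration for 50% growth inhibition is given as GI50.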 Calls of active or inactive are those of the source. No stated cut-off is given here; in the data, active = GI50 up to about 1.1 µM and inactive = higher. Where a SMILES comes first, the peptide text is derived from it.

Legend:
Assay in all cases: inhibition of tumour cell growth, NCI panel, 48 h
IGROV-1 = system: IGROV-1
UO-31 = system: UO-31
MOLT-4 = system: MOLT-4
ACHN = system: ACHN
NCI-H460 = system: NCI-H460
UACC-257 = system: UACC-257
SN12C = system: SN12C
M14 = system: M14
SF-295 = system: SF-295
TK-10 = system: TK-10
HCT-15 = system: HCT-15
OVCAR-8 = system: OVCAR-8
A498 = system: A498
SK-MEL-2 = system: SK-MEL-2
SNB-75 = system: SNB-75
EKVX = system: EKVX
OVCAR-4 = system: OVCAR-4
RXF 393 = system: RXF 393
NCI-H522 = system: NCI-H522
HL-60 = system: HL-60

SMILES: CNC(=O)OCC1=C(COC(=O)NC)CN(c2ccccc2)C1
- GI50 (IGROV-1): > 100 µM (inactive)
- GI50 (UO-31): > 100 µM (inactive)
- GI50 (MOLT-4): > 100 µM (inactive)
- GI50 (ACHN): > 100 µM (inactive)
- GI50 (NCI-H460): > 100 µM (inactive)
- GI50 (UACC-257): > 100 µM (inactive)
- GI50 (SN12C): > 100 µM (inactive)
- GI50 (M14): > 100 µM (inactive)
- GI50 (SF-295): > 100 µM (inactive)
- GI50 (TK-10): > 100 µM (inactive)
- GI50 (HCT-15): > 100 µM
- GI50 (OVCAR-8): > 100 µM (inactive)
- GI50 (A498): > 100 µM (inactive)
- GI50 (SK-MEL-2): > 100 µM (inactive)
- GI50 (SNB-75): > 100 µM (inactive)
- GI50 (EKVX): > 100 µM (inactive)
- GI50 (OVCAR-4): > 100 µM (inactive)
- GI50 (RXF 393): > 100 µM (inactive)

SMILES: OCCCC(O)(c1ccccc1)c1ccccc1
- GI50 (IGROV-1): > 100 µM (inactive)
- GI50 (UO-31): > 100 µM (inactive)
- GI50 (MOLT-4): > 100 µM (inactive)
- GI50 (ACHN): > 100 µM (inactive)
- GI50 (NCI-H460): > 100 µM (inactive)
- GI50 (NCI-H522): > 100 µM (inactive)
- GI50 (UACC-257): > 100 µM (inactive)
- GI50 (SN12C): > 100 µM (inactive)
- GI50 (M14): > 100 µM (inactive)
- GI50 (SF-295): > 100 µM (inactive)
- GI50 (TK-10): > 100 µM (inactive)
- GI50 (HCT-15): > 100 µM
- GI50 (OVCAR-8): > 100 µM (inactive)
- GI50 (SK-MEL-2): > 100 µM (inactive)
- GI50 (SNB-75): > 100 µM (inactive)
- GI50 (HL-60): > 100 µM (inactive)
- GI50 (EKVX): > 100 µM (inactive)
- GI50 (OVCAR-4): > 100 µM (inactive)
- GI50 (RXF 393): > 100 µM (inactive)

SMILES: CC1CCc2sc3nc(S)n(C)c(=O)c3c2C1 (stereo not drawn)
- GI50 (IGROV-1): 37.4 µM (inactive)
- GI50 (UO-31): 18.3 µM (inactive)
- GI50 (MOLT-4): 41.4 µM (inactive)
- GI50 (ACHN): 37.3 µM (inactive)
- GI50 (NCI-H460): 35.4 µM (inactive)
- GI50 (NCI-H522): 30.1 µM (inactive)
- GI50 (UACC-257): 35.3 µM (inactive)
- GI50 (SN12C): 36.5 µM (inactive)
- GI50 (M14): 34.3 µM (inactive)
- GI50 (SF-295): 31.1 µM (inactive)
- GI50 (TK-10): 63 µM (inactive)
- GI50 (HCT-15): 39.5 µM
- GI50 (OVCAR-8): 39.5 µM (inactive)
- GI50 (SK-MEL-2): 40.4 µM (inactive)
- GI50 (SNB-75): 35.9 µM (inactive)
- GI50 (HL-60): 2.85 µM (inactive)
- GI50 (EKVX): 19 µM (inactive)
- GI50 (OVCAR-4): 35.2 µM (inactive)
- GI50 (RXF 393): 57.9 µM (inactive)

SMILES: c1ccc(C2=NCCc3cc4c(cc32)OCO4)cc1
- GI50 (IGROV-1): > 100 µM (inactive)
- GI50 (NCI-H522): > 100 µM (inactive)
- GI50 (UACC-257): > 100 µM (inactive)
- GI50 (SN12C): > 100 µM (inactive)
- GI50 (M14): > 100 µM (inactive)
- GI50 (SF-295): > 100 µM (inactive)
- GI50 (TK-10): > 100 µM (inactive)
- GI50 (OVCAR-8): > 100 µM (inactive)
- GI50 (A498): > 100 µM (inactive)
- GI50 (SK-MEL-2): > 100 µM (inactive)
- GI50 (EKVX): > 100 µM (inactive)
- GI50 (OVCAR-4): > 100 µM (inactive)
- GI50 (RXF 393): > 100 µM (inactive)

SMILES: Cn1cnc([N+](=O)[O-])c1Sc1nnc(C(F)(F)F)n1C
- GI50 (IGROV-1): 40 µM (inactive)
- GI50 (UO-31): 26.5 µM (inactive)
- GI50 (MOLT-4): 15.2 µM (inactive)
- GI50 (ACHN): 23.6 µM (inactive)
- GI50 (NCI-H460): > 100 µM (inactive)
- GI50 (NCI-H522): 10.4 µM (inactive)
- GI50 (UACC-257): 17.3 µM (inactive)
- GI50 (SN12C): 40.2 µM (inactive)
- GI50 (M14): 17.4 µM (inactive)
- GI50 (SF-295): > 100 µM (inactive)
- GI50 (TK-10): 26.4 µM (inactive)
- GI50 (OVCAR-8): 24.9 µM (inactive)
- GI50 (A498): > 100 µM (inactive)
- GI50 (SK-MEL-2): 21.9 µM (inactive)
- GI50 (SNB-75): 84.1 µM (inactive)
- GI50 (EKVX): > 100 µM (inactive)
- GI50 (OVCAR-4): 24.3 µM (inactive)

SMILES: CCC(C)C1NC(=O)C2CCCN2C(=O)CNC(=O)C(C)NC(=O)C(Cc2ccccc2)NC(=O)C(C(C)C)NC1=O (stereo not drawn) (cyclo(GPIVFA); configuration not given here)
- GI50 (IGROV-1): > 100 µM (inactive)
- GI50 (UO-31): > 100 µM (inactive)
- GI50 (MOLT-4): > 100 µM (inactive)
- GI50 (ACHN): > 100 µM (inactive)
- GI50 (NCI-H460): > 100 µM (inactive)
- GI50 (UACC-257): > 100 µM (inactive)
- GI50 (SN12C): > 100 µM (inactive)
- GI50 (M14): > 100 µM (inactive)
- GI50 (SF-295): > 100 µM (inactive)
- GI50 (TK-10): > 100 µM (inactive)
- GI50 (HCT-15): > 100 µM
- GI50 (OVCAR-8): > 100 µM (inactive)
- GI50 (A498): > 100 µM (inactive)
- GI50 (SNB-75): > 100 µM (inactive)
- GI50 (EKVX): > 100 µM (inactive)
- GI50 (OVCAR-4): > 100 µM (inactive)
- GI50 (RXF 393): > 100 µM (inactive)
